# Structures can show the parent of a compound that is named as a salt. Where two headings read alike, the source gives them in different places.
# Assays:
# Type in all cases: cell-based
# [1] = system: Staphylococcus aureus 209P JC-1; test: MIC by agar-dilution method, Staphylococcus aureus 209P JC-1
# Description: (§1) The compounds of this invention are all novel compounds.
# [2] = system: Staphylococcus aureus Smith; test: MIC by agar-dilution method, Staphylococcus aureus Smith
# Description: as §1
# [3] = system: Escherichia coli NIHJ JC-2; test: MIC by agar-dilution method, Escherichia coli NIHJ JC-2
# Description: as §1
# [4] = system: Klebsiella pneumoniae PCI 602; test: MIC by agar-dilution method, Klebsiella pneumoniae PCI 602
# Description: as §1
# [5] = system: Proteus mirabilis GN 79; test: MIC by agar-dilution method, Proteus mirabilis GN 79
# Description: as §1
# [6] = system: Proteus vulgaris GN 76; test: MIC by agar-dilution method, Proteus vulgaris GN 76
# Description: as §1
# [7] = system: Proteus rettgeri GN 624; test: MIC by agar-dilution method, Proteus rettgeri GN 624
# Description: as §1
# [8] = system: Salmonella typhimurium LT-2; test: MIC by agar-dilution method, Salmonella typhimurium LT-2
# Description: as §1
# [9] = system: Serratia marcescens No. 1; test: MIC by agar-dilution method, Serratia marcescens No. 1
# Description: as §1
# [10] = system: Pseudomonas aeruginosa MB 3833; test: MIC by agar-dilution method, Pseudomonas aeruginosa MB 3833
# Description: as §1
# [11] = Providencia rettgeri, GN624, read-out: MIC.
# [12] = Salmonella enterica, read-out: MIC.
SMILES,MIC ([1]; read-out: MIC.) [µg/mL],MIC ([2]; read-out: MIC.) [µg/mL],"MIC ([3]; NIHJJC2, read-out: MIC.) [µg/mL]","MIC ([4]; PCI602, read-out: MIC.) [µg/mL]","MIC ([5]; GN79, read-out: MIC.) [µg/mL]","MIC ([6]; GN76, read-out: MIC.) [µg/mL]","MIC [7, 11] [µg/mL]","MIC [8, 12] [µg/mL]",MIC ([9]; read-out: MIC.) [µg/mL],"MIC ([10]; MB3833, read-out: MIC.) [µg/mL]",MIC [1] [µg/mL],MIC [2] [µg/mL],MIC [3] [µg/mL],MIC [4] [µg/mL],MIC [5] [µg/mL],MIC [6] [µg/mL],MIC [7] [µg/mL],MIC [8] [µg/mL],MIC [9] [µg/mL],MIC [10] [µg/mL]
"CO/N=C(\C(=O)NC1C(=O)N2C(C(=O)O)=C(/C=C\c3ccccc3)CSC12)c1csc(N)n1 (stereo not drawn) [Example 11, 7-[2-methoxyimino-2-(2-aminothiazol-4-yl)acetamido]-3-(2-phenylvinyl)-3-cephem-4-carboxylic acid trifluoroacetate (cyn-isomer, cis-isomer)]",0.78,0.78,3.13,3.13,0.78,0.78,3.13,6.25,1.56,> 50,,,,,,,,,,
"Cc1ncsc1C=CC1=C(C(=O)O)N2C(=O)C(NC(=O)C(=NOCC(=O)O)c3csc(N)n3)C2SC1.O=C(O)C(F)(F)F (single isomer, unassigned) [Example 16, 7-[2-carboxymethoxyimino-2-(2-aminothiazol-4-yl)acetamido]-3-[2-(4-methylthiazol-5yl)vinyl]-3-cephem-4-carboxylic acid trifluoroacetate (syn-isomer, trans-isomer)]",,,,,,,,,,,3.13,3.13,0.39,0.20,0.05,≤ 0.025,1.56,0.10,0.05,12.5
"CO/N=C(\C(=O)NC1C(=O)N2C(C(=O)O)=C(/C=C\c3ccco3)CSC12)c1csc(N)n1 (stereo not drawn) [Example 12, 7-[2-methoxyimino-2-(2-aminothiazol-4-yl)acetamido]-3-[2-(2-furyl)vinyl]-3-cephem-4-carboxylic acid sodium salt (cyn-isomer, cis-isomer)]",0.39,0.78,3.13,1.56,0.78,0.39,3.13,1.56,1.56,> 50,,,,,,,,,,
"CO/N=C(\C(=O)NC1C(=O)N2C(C(=O)O)=C(/C=C/c3ccc([N+](=O)[O-])o3)CSC12)c1csc(N)n1 (stereo not drawn) [Example 13, 7-[2-methoxyimino-2-(2-aminothiazol-4-yl)acetamido]-3-[2-(5-nitor-2-furyl)vinyl]-3-cephem-4-carboxylic acid sodium salt (syn-isomer, trans-isomer)]",6.25,6.25,6.25,3.13,12.5,3.13,3.13,6.25,6.25,> 50,,,,,,,,,,
"CO/N=C(\C(=O)NC1C(=O)N2C(C(=O)O)=C(/C=C\c3cnc(C)s3)CSC12)c1csc(N)n1 (stereo not drawn) [Example 31, 7-[2-methoxyimino-2-(2-aminothiazol-4-yl)acetamido]-3-[2-(2-methylthiazol-5-yl)vinyl]-3-cephem-4-carboxylic acid trifluoroacetate (syn-isomer, cis-isomer)]",0.78,1.56,1.56,1.56,0.78,0.2,0.78,1.56,0.78,> 50,,,,,,,,,,
"CO/N=C(\C(=O)NC1C(=O)N2C(C(=O)O)=C(C=Cc3ccccc3F)CSC12)c1csc(N)n1 (mixture of isomers) [Example 14, 7-[2-methoxyimino-2-(2-aminothiazol-4-yl)acetamido]-3-[2-(o-fluorophenyl)vinyl]-3-cephem-4-carboxylic acid trifluoroacetate (syn-isomer, mixed cis- and trans-isomers)]",0.2,0.39,3.13,3.13,0.2,0.2,1.56,3.13,1.56,> 50,,,,,,,,,,

# Other lines, results leading:
MIC ([1]; read-out: MIC.) [µg/mL],MIC ([2]; read-out: MIC.) [µg/mL],"MIC ([3]; NIHJJC2, read-out: MIC.) [µg/mL]","MIC ([4]; PCI602, read-out: MIC.) [µg/mL]","MIC ([5]; GN79, read-out: MIC.) [µg/mL]","MIC ([6]; GN76, read-out: MIC.) [µg/mL]","MIC [7, 11] [µg/mL]","MIC [8, 12] [µg/mL]",MIC ([9]; read-out: MIC.) [µg/mL],"MIC ([10]; MB3833, read-out: MIC.) [µg/mL]",MIC [1] [µg/mL],MIC [2] [µg/mL],MIC [3] [µg/mL],MIC [4] [µg/mL],MIC [5] [µg/mL],MIC [6] [µg/mL],MIC [7] [µg/mL],MIC [8] [µg/mL],MIC [9] [µg/mL],MIC [10] [µg/mL],SMILES
0.2,0.2,3.13,3.13,0.78,1.56,1.56,3.13,1.56,100,,,,,,,,,,,"CO/N=C(\C(=O)NC1C(=O)N2C(C(=O)O)=C(/C=C\c3sc(Cl)nc3Cl)CSC12)c1csc(N)n1 (stereo not drawn) [Example 34, 7-[2-methoxyimino-2-(2-aminothiazol-4-yl)acetamido]-3-[2-(2,4-dichlorothiazol-5-yl)vinyl]-3-cephem-4-carboxylic acid sodium salt (syn-isomer, cis-isomer)]"
0.39,0.39,0.39,0.2,0.39,0.1,0.78,0.39,0.39,25,,,,,,,,,,,"CO/N=C(\C(=O)NC1C(=O)N2C(C(=O)O)=C(/C=C\c3cncs3)CSC12)c1csc(N)n1 (stereo not drawn) [Example 33, 7-[2-methoxyimino-2-(2-aminothiazol-4-yl)acetamido]-3-[2-(thiazol-5-yl)vinyl]-3-cephem-4-carboxylic acid sodium salt (syn-isomer, cis-isomer)]"
0.39,0.39,0.78,0.39,,0.1,0.39,0.78,0.39,50,,,,,,,,,,,"CO/N=C(\C(=O)NC1C(=O)N2C(C(=O)O)=C(/C=C/c3scnc3C)CSC12)c1csc(N)n1 (stereo not drawn) [Example 18, 7-[2-methoxyimino-2-(2-aminothiazol-4-yl)acetamido-3-[2-(4-methylthiazol-5-yl)vinyl]-3cephem-4-carboxylic acid sodium salt (syn-isomer, trans-isomer)]"
0.78,0.78,0.1,0.1,0.78,0.39,0.39,0.1,0.1,> 50,,,,,,,,,,,"CO/N=C(\C(=O)NC1C(=O)N2C(C(=O)O)=C(C=Cc3sc[n+](C)c3C)CSC12)c1csc(N)n1 (stereo not drawn) [Example 15, 7-[2-methoxyimino-2-(2-aminothiazol-4-yl)acetamido]-3-[2-(3,4-dimethyl-5-thiazolio)vinyl]-3-cephem-4-carboxylic acid di-trifluoroacetate (syn-isomer)]"
0.2,0.39,0.39,0.39,0.39,0.2,3.13,0.39,0.39,25,,,,,,,,,,,"CO/N=C(\C(=O)NC1C(=O)N2C(C(=O)O)=C(/C=C\c3scnc3C)CSC12)c1csc(N)n1 (stereo not drawn) [Example 10, 7-[2-methoxyimino-2-(2-aminothiazol-4-yl)acetamido]-3-[2-(4-methylthiazol-5-yl)vinyl]-3-cephem-4-carboxylic acid trifluoroacetate (cyn-isomer, cis-isomer)]"
0.1,0.2,0.2,0.1,0.2,0.1,1.56,0.2,0.2,12.5,,,,,,,,,,,"CO/N=C(\C(=O)NC1C(=O)N2C(C(=O)O)=C(/C=C\c3scnc3Cl)CSC12)c1csc(N)n1 (stereo not drawn) [Example 21, 7-[2-methoxyimino-2-(2-aminothiazol-4-yl)acetamido]-3-[2-(4-chlorothiazol-5-yl)vinyl]-3-cephem-4-carboxylic acid (syn-isomer, cis-isomer) sodium salt]"
0.78,1.56,0.78,0.78,0.2,0.1,0.2,0.39,0.2,> 50,,,,,,,,,,,"CO/N=C(\C(=O)NC1C(=O)N2C(C(=O)O)=C(/C=C/c3cnc(C)s3)CSC12)c1csc(N)n1 (stereo not drawn) [Example 30, 7-[2-methoxyimino-2-(2-aminothiazol-4-yl)acetamido]-3-[2-(2-methylthiazol-5-yl)vinyl]-3-cephem-4-carboxylic acid trifluoroacetate (syn-isomer, trans-isomer)]"
0.39,0.78,1.56,1.56,,0.1,6.25,0.78,0.78,100,,,,,,,,,,,"CO/N=C(\C(=O)NC1C(=O)N2C(C(=O)O)=C(/C=C\c3cscn3)CSC12)c1csc(N)n1 (stereo not drawn) [Example 32, 7-[2-methoxyimino-2-(2-aminothiazol-4-yl)acetamido]-3-[2-(thiazol-4-yl)vinyl]-3-cephem-4-carboxylic acid sodium salt (syn-isomer, cis-isomer)]"
